# From US20050074879A1, “Antisense oligonucleotide modulation of STAT3 expression” (priority 2000, published 2005)
# Columns and labels:
# Assay type in all cases: cell-based
# [1] = test system: Human STAT3 mRNA; test: Human STAT3 mRNA dose response in A549 cells, real-time PCR with PPS 199 (Table 20); conditions: 16 hours, LIPOFECTIN, − decrease, + increase relative to untreated control cells
# Description: An additional dose-response experiment was preformed in A549 cells. A549 cells were treated with 18.75, 37.5, 75, or 150 nM of oligonucleotide mixed with 3 ug/mL LIPOFECTIN per 100 nM oligonucleotide as described by other examples herein. Control oligonucleotides used were ISIS 129686 (SEQ ID NO: 394) and ISIS 129690 (SEQ ID NO: 393). Untreated cells served as controls. Following 16 hours of treatment, RNA was prepared from cells for subsequent real-time PCR analysis.
# Human STAT3 mRNA expression levels were quantitated by real-time PCR using primer probe set PPS 199 and gene target quantities were normalized using Ribogreen as described in other examples herein. A “−” or “+” designation in the dose response results indicates a decrease or increase of STAT 3 mRNA expression, respectively, relative to untreated control cells.
# [2] = test system: Human STAT3 mRNA; test: STAT3 mRNA in A549 cells treated with dsRNAs (duplex antisense compounds), real-time PCR PPS 199 (Table 22); conditions: treated 4 hours, harvested 16 hours later, − decrease, + increase vs untreated control
# Description: When cells reached 80% confluency, they are treated with duplexed antisense compounds of the invention. For cells grown in 96-well plates, wells are washed once with […] OPTI-MEM-1 reduced-serum medium (Gibco BRL) and then treated with 130 μL of OPTI-MEM-1 containing 12 μg/mL LIPOFECTIN (Gibco BRL) and the desired duplex antisense compound at a final concentration of 200 nM (a ratio of 6 μg/mL LIPOFECTIN per 100 nM duplex antisense compound). After 5 hours of treatment, the medium is replaced with fresh medium. Cells are harvested 16 hours after treatment, at which time RNA is isolated and target reduction measured by RT-PCR.
# The compounds in Table 21 were tested for their effects on human STAT3 expression in A549 cells. ISIS 330249 targets the same site as the antisense oligonucleotid ISIS 106734 (SEQ ID NO: 45) and ISIS 330247 targets the same site as the antisense oligonucleotide ISIS 113176 (SEQ ID NO: 115); thus, ISIS 106734 and ISIS 113176 were also tested. A549 cells were treated with oligonucleotide mixed with LIPOFECTIN (Invitrogen Corporation, Carlsbad, Calif.) as described herein. The control oligonucleotide used was ISIS 129698 ([…], SEQ ID NO: 402). Cells were treated with oligonucleotide for 4 hours and harvested an additional 16 hours later. Untreated cells served as a control.
# Human STAT3 mRNA expression levels were quantitated by real-time PCR using primer probe set PPS 199 and gene target quantities were normalized using Ribogreen as described in other examples herein. A “−” or “+” designation indicates a decrease or increase of STAT 3 mRNA expression, respectively, relative to untreated control cells. Where present, “N.D.” indicates not determined.
# [3] = test system: Human STAT3 mRNA; test: Human STAT3 mRNA dose response in T-24 cells, real-time PCR with PPS 199 (Table 18); conditions: 16 hours, − decrease, + increase relative to untreated control
# Excerpt: The transitional cell bladder carcinoma cell line T-24 was obtained from the American Type Culture Collection (ATCC) (Manassas, Va.). T-24 cells were routinely cultured in complete McCoy's 5A basal media (Gibco/Life Technologies, Gaithersburg, Md.) supplemented with 10% fetal calf serum (Gibco/Life Technologies, Gaithersburg, Md.), penicillin 100 units per mL, and streptomycin 100 micrograms per mL (Gibco/Life Technologies, Gaithersburg, Md.). Cells were routinely passaged by trypsinization and dilution when they reached 90% confluence. Cells were seeded into 96-well plates (Falcon-Primaria #3872) at a density of 7000 cells/well for use in RT-PCR analysis.
# Control oligonucleotides used were ISIS 129695 ([…], SEQ ID NO: 391), ISIS 129694 ([…] SEQ ID NO: 392), ISIS 129690 ([…] SEQ ID NO: 393), ISIS 129686 ([…] SEQ ID NO: 394), ISIS 116847 ([…], SEQ ID NO: 395) and ISIS 113529 ([…] SEQ ID NO: 396). These are universal scrambled control oligonucleotides.
# (§1) T-24 cells were treated with 18.75, 37.5, 75, or 150 nM of oligonucleotide mixed with 3 ug/mL LIPOFECTIN per 100 nM oligonucleotide as described by other examples herein. Untreated cells served as controls. Following 16 hours of treatment, RNA was prepared from cells for subsequent real-time PCR analysis.
# Human STAT3 mRNA expression levels were quantitated by real-time PCR using primer probe set PPS 199 and gene target quantities were normalized using Ribogreen as described in other examples herein. A “−” or “+” designation indicates a decrease or increase of STAT 3 mRNA expression, respectively, relative to untreated control cells.
# [4] = test system: Human STAT3 mRNA; test: Human STAT3 mRNA dose response in T-24 cells, real-time PCR with PPS 2033 (Table 19); conditions: 16 hours, − decrease, + increase relative to untreated control
# Description: The dose-response was repeated in T-24 cells and gene target quantities were measured using a different primer-probe set, called PPS 2033 herein. PPS 2033 comprises probes and primers to human STAT3 were designed to hybridize to a human STAT3 sequence, using published sequence information (incorporated herein as SEQ ID NO: XXX). For PPS 2033 the PCR primers were: forward primer: GAGGCCCGCCCAACA (SEQ ID NO: 397) reverse primer: […] (SEQ ID NO: 398) and the PCR probe was: FAM-CTGCCTAGATCGGC-TAMRA (SEQ ID NO: 399) where FAM is the fluorescent reporter dye and TAMRA is the quencher dye. Gene target quantities obtained by real time RT-PCR are normalized by quantifying total RNA using RiboGreen™ (Molecular Probes, Inc. Eugene, Oreg.). Control oligonucleotides used were ISIS 129695 (SEQ ID NO: 391), ISIS 129694 (SEQ ID NO: 392), ISIS 129690 (SEQ ID NO: 393), ISIS 129686 (SEQ ID NO: 394), ISIS 116847 (SEQ ID NO: 395) and ISIS 113529 (SEQ ID NO: 396).
# as §1
# Human STAT3 mRNA expression levels were quantitated by real-time PCR using primer probe set PPS 2033 and gene target quantities were normalized using Ribogreen as described in other examples herein. A “−” or “+” designation indicates a decrease or increase of STAT 3 mRNA expression, respectively, relative to untreated control cells.
# [5] = test system: Mouse B16 melanoma cells; test: Cell number of B16 melanoma cells after antisense treatment; conditions: 24 hours after transfection
# Description: Mouse B16 melanoma cells were grown in RPMI 1640 (Life Technologies, Inc., Grand Island, N.Y.) medium supplemented with 10% fetal bovine serum, 2 mM L-glutamine, 1 mM sodium pyruvate, 1% MEM nonessential amino acids and 100 IU/ml penicillin/streptomycin.
# Cells were treated with ISIS 17152, targeted to mouse STAT3, or the 3-base mismatch control, ISIS 28084 ([…]; SEQ ID NO: 151). Cells were transfected with oligonucleotide using LipofectAMINE PLUSJ reagent (GibcoBRL). Oligonucleotide was pre-complexed with LipofectAMINE PLUSJ by adding the oligonucleotide to 100 μl serum-free RPMI 1640 medium, then 6 μl LipofectAMINE PLUSJ reagent was added, the sample was mixed well and incubated for 15 minutes at room temperature. An additional 4 μl of LipofectAMINE PLUSJ reagent was diluted to 100 μl in serum-free RPMI. This diluted LipofectAMINE PLUSJ was mixed with the pre-complexed oligonucleotide/LipofectAMINE PLUSJ mixture and incubated for 15 minutes at room temperature. 800 μl of serum-free RPMI 1640 was added, and the resulting oligonucleotide-LipofectAMINE PLUSJ-medium mixture (approximately 1 ml) was added to cells in a 6-well plate. After 3 hours incubation, 1 ml of RPMI 1640 supplemened with 20% fetal bovine serum was added. Oligonucleotide concentrations were 200 nM or 300 nM.
# 24 hours after transfection, cells were counted to determine the effect of antisense treatment on cell death. Cells were harvested at 24 hours post transfection for western blot analysis and at 48 hours post-transfection for Annexin-V staining for apoptosis.
Substance,Percent change of STAT3 expression in A549 cells using PPS 199 ([1]; 18.75 nM oligonucleotide),Percent change of STAT3 expression in A549 cells using PPS 199 ([1]; 37.5 nM oligonucleotide),Percent change of STAT3 expression in A549 cells using PPS 199 ([1]; 75 nM oligonucleotide),Percent change of STAT3 expression in A549 cells using PPS 199 ([1]; 150 nM oligonucleotide),Percent change in STAT3 mRNA expression in A549 cells by duplex antisense compounds ([2]; 50 nM oligonucleotide),Percent change in STAT3 mRNA expression in A549 cells by duplex antisense compounds ([2]; 100 nM oligonucleotide),Percent change in STAT3 mRNA expression in A549 cells by duplex antisense compounds ([2]; 200 nM oligonucleotide),Percent change in STAT3 mRNA expression in A549 cells by duplex antisense compounds ([2]; 400 nM oligonucleotide),Percent change of STAT3 expression using PPS 199 ([3]; 18.75 nM oligonucleotide),Percent change of STAT3 expression using PPS 199 ([3]; 37.5 nM oligonucleotide),Percent change of STAT3 expression using PPS 199 ([3]; 75 nM oligonucleotide),Percent change of STAT3 expression using PPS 199 ([3]; 150 nM oligonucleotide),Percent change of STAT3 expression using PPS 2033 ([4]; 18.75 nM oligonucleotide),Percent change of STAT3 expression using PPS 2033 ([4]; 37.5 nM oligonucleotide),Percent change of STAT3 expression using PPS 2033 ([4]; 75 nM oligonucleotide),Percent change of STAT3 expression using PPS 2033 ([4]; 150 nM oligonucleotide),other results
"106734 (CATTCTTGGGATTGTTGGTC; all C 5-methyl, all phosphorothioate, sugars by position not given here; further chemistry not fully specified) [compound 106734]",−2%,−16%,−56%,−73%,−40%,−56%,−67%,−77%,,,,,,,,,Percent change in STAT3 mRNA expression in A549 cells by duplex antisense compounds ([2]; 12.5 nM oligonucleotide): −5%; Percent change in STAT3 mRNA expression in A549 cells by duplex antisense compounds ([2]; 25 nM oligonucleotide): −5%
"129686 (antisense CGTTATTAACCTCCGTTGAA; all phosphorothioate, sugars by position and methylation of C not given here; 2'-MOE wings and deoxy gap) [compound 129686]",+27%,+23%,+22%,+19%,,,,,+2%,+1%,−5%,+1%,+20%,+16%,+25%,+9%,
"129690 (antisense TTAGAATACGTCGCGTTATG; all phosphorothioate, sugars by position and methylation of C not given here; 2'-MOE wings and deoxy gap) [compound 129690]",+30%,+27%,+16%,+27%,,,,,+2%,+7%,+6%,+8%,+4%,+10%,+8%,+11%,
"129698 (antisense TTTGATCGAGGTTAGCCGTG; listed as DNA, chemistry not given here) [compound 129698]",,,,,+41%,+42%,+1%,+22%,,,,,,,,,
"AAAAAGAGGCCTGATTGCCC (listed as DNA, chemistry not given here) [ISIS 28084, reference compound]",,,,,,,,,,,,,,,,,"cell number ([5]; 200 nM, Expt 1): 10.2 × 10^5; cell number ([5]; 200 nM, Expt 2): 5.0 × 10^5; cell number ([5]; 200 nM, Expt 3): 3.5 × 10^5; cell number ([5]; 300 nM, Expt 2): 9.1 × 10^5; cell number ([5]; 300 nM, Expt 3): 3.3 × 10^5"
